Measured values taken from the CombiSolv-Exp solvation set (Vermeire and Green 2021).

Experiment: solvent given as SMILES

c1ccc2c(c1)OCCOCCOCCOCCO2
Conditions	solvation free energy, 298 K [kcal/mol]
in Cc1cccc(C)c1	-14.8
in O	-14.4

CCNc1nc(Cl)nc(NC(C)C)n1
Conditions	solvation free energy, 298 K [kcal/mol]
in O	-9.69

Cc1ccncc1C
Conditions	solvation free energy, 298 K [kcal/mol]
in O	-5.22

Cc1ccc(O)c(C)c1
Conditions	solvation free energy, 298 K [kcal/mol]
in CCCCCC	-6.51
in CCCCCCC	-6.48
in CCCCCCCC	-6.46
in O	-6.02

Cc1cc(C)c(C)cc1C
Conditions	solvation free energy, 298 K [kcal/mol]
in CC(C)(C)O	-6.62
in CC(C)CC(C)(C)C	-7.1
in CC(C)CC(C)O	-6.69
in CC(C)CCO	-6.63
in CC(C)CO	-6.52
in CC(C)O	-6.49
in CCC(C)O	-6.62
in CCCC(C)O	-6.69
in CCCCCC	-7.24
in CCCCCCC	-7.19
in CCCCCCCC	-7.14
in CCCCCCCCC=CCCCCCCCC(=O)OCC(COC(=O)CCCCCCCC=CCCCCCCCC)OC(=O)CCCCCCCC=CCCCCCCCC	-7.13
in CCCCCCCCCC	-7.08
in CCCCCCCCCCO	-6.84
in CCCCCCCCO	-6.81
in CCCCCCCO	-6.78
in CCCCCCO	-6.75
in CCCCCO	-6.71
in CCCCO	-6.71
in CCCCOCCCC	-7.19
in CCCO	-6.54
in CCO	-6.44
in CCOCC	-7.34
in CO	-6.18
in O	-0.72

Clc1cc(Cl)c(Cl)c(Cl)c1Cl
Conditions	solvation free energy, 298 K [kcal/mol]
in CCCCCCCCC=CCCCCCCCC(=O)OCC(COC(=O)CCCCCCCC=CCCCCCCCC)OC(=O)CCCCCCCC=CCCCCCCCC	-8.79
in CCCCCCCCO	-8.85
in O	-1.69

CC=C(C)C
Conditions	solvation free energy, 298 K [kcal/mol]
in BrC(Br)C(Br)Br	-2.68
in C1=Cc2ccccc2C1	-3.05
in C=CCCCCCCCCCCCCCC	-2.97
in CC1COC(=O)O1	-2.09
in CC(=O)N(C)C	-2.58
in CC(=O)c1ccccc1	-2.79
in CC(C)(C)O	-3.22
in CCCCC#N	-2.9
in CCCCCC#N	-2.96
in CCNC(C)=O	-2.69
in CN1CCCC1=O	-2.51
in CN(C)C=O	-2.56
in CN(C)P(=O)(N(C)C)N(C)C	-2.61
in CNC(C)=O	-2.54
in CNC=O	-2.17
in CS(C)=O	-1.97
in Cc1cccc2ccccc12	-2.88
in Cc1cccc(O)c1	-2.63
in ClC(Cl)C(Cl)Cl	-3.16
in Clc1cccc2ccccc12	-2.8
in N#CCCCC#N	-1.67
in N#CCCCCC#N	-1.98
in N#CCc1ccccc1	-2.48
in N#Cc1ccccc1	-2.89
in NCc1ccccc1	-2.67
in Nc1ccccc1	-2.3
in O	1.37
in O=C1CCCCC1	-3.09
in O=C(O)C(Cl)Cl	-2.63
in OCCO	-0.76
in OCc1ccccc1	-2.44

O=C(O)c1cccc2ccccc12
Conditions	solvation free energy, 298 K [kcal/mol]
in C=CCCCCCCC=C	-9.51
in C=CCCCCCCCCCCCCCC	-9.45
in O	-9.04

CCCCCC
Conditions	solvation free energy, 298 K [kcal/mol]
in BrC(Br)C(Br)Br	-2.72
in Brc1cccc2ccccc12	-3.07
in Brc1ccccc1	-3.65
in C1=Cc2ccccc2C1	-3.49
in C1CCC(C2CCCCC2)CC1	-3.73
in C1CCCCC1	-4.06
in C1CCOC1	-3.9
in C1COCCO1	-3.22
in C=CCCCC	-4.02
in C=CCCCCCC	-3.93
in C=CCCCCCCCC	-3.92
in C=CCCCCCCCCCCCCCC	-3.59
in CC1CCS(=O)(=O)C1	-2.13
in CC1COC(=O)O1	-2.04
in CC#N	-2.63
in CC(=O)CC(C)C	-3.59
in CC(=O)N(C)C	-2.76
in CC(=O)O	-2.89
in CC(=O)OCc1ccccc1	-3.02
in CC(=O)c1ccccc1	-3.04
in CC(C)(C)Cl	-4
in CC(C)(C)O	-3.33
in CC(C)=O	-3.26
in CC(C)CCCC(C)CCCC(C)CCCCC(C)CCCC(C)CCCC(C)C	-3.47
in CC(C)CCO	-3.31
in CC(C)CCl	-3.94
in CC(C)CO	-3.36
in CC(C)O	-3.21
in CC(C)OC(C)C	-3.98
in CC(O)CO	-1.94
in CCBr	-4.08
in CCC#N	-3.13
in CCC(C)(C)C	-4.04
in CCC(C)(C)OC	-3.92
in CCC(C)=O	-3.44
in CCC(C)Cl	-3.98
in CCCC#N	-3.07
in CCCC(=O)OCC	-3.64
in CCCC(C)=O	-3.52
in CCCCC	-4.11
in CCCCC#N	-3.27
in CCCCC(CC)COC(=O)CCCCC(=O)OCC(CC)CCCC	-3.33
in CCCCC(CC)COC(=O)c1ccccc1C(=O)OCC(CC)CCCC	-3.13
in CCCCCC#N	-3.28
in CCCCCC(C)=O	-3.54
in CCCCCCC	-3.97
in CCCCCCCC	-3.92
in CCCCCCCCC	-3.86
in CCCCCCCCC=CCCCCCCCC(=O)OCC(COC(=O)CCCCCCCC=CCCCCCCCC)OC(=O)CCCCCCCC=CCCCCCCCC	-3.45
in CCCCCCCCCC	-3.83
in CCCCCCCCCCCC	-3.73
in CCCCCCCCCCCCCC	-3.6
in CCCCCCCCCCCCCCCC	-3.64
in CCCCCCCCCCCCO	-3.31
in CCCCCCCCCOC(=O)c1ccccc1C(=O)OCCCCCCCCC	-3.23
in CCCCCCCCN(CCCCCCCC)CCCCCCCC	-3.49
in CCCCCCCCO	-3.36
in CCCCCCCO	-3.33
in CCCCCCO	-3.39
in CCCCCCOC(C)=O	-3.61
in CCCCCN(CCCCC)CCCCC	-3.67
in CCCCCO	-3.33
in CCCCCl	-3.91
in CCCCN(C=O)CCCC	-3.25
in CCCCN(CCCC)CCCC	-3.6
in CCCCO	-3.32
in CCCCOC(=O)c1ccccc1C(=O)OCCCC	-3.24
in CCCCOC(C)=O	-3.59
in CCCCOCCCC	-3.87
in CCCO	-3.16
in CCN1CCCC1=O	-2.88
in CCN(CC)C(C)=O	-3.11
in CCN(CC)CC	-4.01
in CCNC(C)=O	-2.92
in CCNC=O	-2.69
in CCO	-3.1
in CCOC(=O)c1ccccc1C(=O)OCC	-2.73
in CCOC(C)(C)C	-3.93
in CCOC(C)=O	-3.46
in CCOCC	-3.99
in CCOCCO	-2.96
in CCOCCOCCOCC	-3.42
in CCOc1ccccc1	-3.49
in CN1CCCC1=O	-2.65
in CN1CCCCC1=O	-2.78
in CN1CCN(C)C1=O	-2.51
in CN(C)C=O	-2.62
in CN(C)P(=O)(N(C)C)N(C)C	-2.98
in CNC(C)=O	-2.74
in CNC=O	-2.36
in CO	-2.82
in COC(C)(C)C	-4.01
in COC(C)=O	-3.3
in COCCO	-2.7
in COCCOCCOCCOCCOC	-2.82
in COc1ccccc1	-3.41
in CS(C)=O	-1.83
in Cc1ccc(C)cc1	-3.87
in Cc1cccc2ccccc12	-3.36
in Cc1cccc(C)c1	-3.85
in Cc1cccc(O)c1	-2.91
in Cc1ccccc1	-3.87
in Cc1ccccn1	-3.5
in ClC(Cl)(Cl)Cl	-4.08
in ClC(Cl)C(Cl)Cl	-3.35
in ClC(Cl)Cl	-3.94
in ClCCCl	-3.45
in ClCCl	-3.75
in Clc1cccc2ccccc12	-3.23
in Clc1ccccc1	-3.85
in FC(F)(F)C(F)(F)C(F)(F)C(F)(F)C(F)(F)C(F)(F)C(F)(F)C(F)(F)F	-2.53
in FC(F)(F)C(F)(F)C(F)(F)C(F)(F)C(F)(F)C(F)(F)F	-2.67
in Fc1ccccc1	-3.88
in ICI	-2.2
in N#CCCCC#N	-1.5
in N#CCCCCC#N	-1.86
in N#CCCO	-1.84
in N#CCCOCCC#N	-0.89
in N#CCc1ccccc1	-2.62
in N#Cc1ccccc1	-3.13
in NC=O	-0.53
in NCCN	-1.85
in NCCO	-0.77
in NCc1ccccc1	-2.92
in Nc1ccccc1	-2.36
in O=C1CCCCC1	-3.37
in O=C1CCCO1	-2.22
in O=C(O)C(Cl)Cl	-2.74
in O=CN1CCOCC1	-1.98
in O=Cc1ccco1	-2.37
in O=S=O	-3.18
in OC1CCCCC1	-3.1
in OCC1CCCO1	-2.62
in OCCCCCO	-2.03
in OCCCCO	-1.88
in OCCCO	-1.54
in OCCCl	-2.22
in OCCOCCO	-1.43
in OCCOCCOCCO	-1.54
in OCCOCCOCCOCCO	-1.65
in OCCS	-1.9
in OCCc1ccccc1	-2.75
in OCc1ccccc1	-2.66
in OCc1ccco1	-2.27
in S=C=S	-4.03
in c1ccc2c(c1)CCCC2	-3.65
in c1ccc2ncccc2c1	-3.1
in c1ccc(C2CCCCC2)cc1	-3.62
in c1ccccc1	-3.84
in c1ccncc1	-3.27

C=C1CC2CCC1C2(C)C (configuration not stated)
Conditions	solvation free energy, 298 K [kcal/mol]
in O	0.52

C=C(C)C1=CC=C(C)CC1
Conditions	solvation free energy, 298 K [kcal/mol]
in O	-1.35

COC(OC)(OC)C(F)(F)F
Conditions	solvation free energy, 298 K [kcal/mol]
in O	-0.8

N#CCc1ccccc1
Conditions	solvation free energy, 298 K [kcal/mol]
in CCCCCCCCCCCCCCCC	-6.06
in O	-5.05

CCCCCCCCCCCCO
Conditions	solvation free energy, 298 K [kcal/mol]
in CC(C)CC(C)(C)C	-8.62
in CCCCCC	-9.26
in CCCCCCCCC=CCCCCCCCC(=O)OCC(COC(=O)CCCCCCCC=CCCCCCCCC)OC(=O)CCCCCCCC=CCCCCCCCC	-10.2

CC(C)Cc1cnccn1
Conditions	solvation free energy, 298 K [kcal/mol]
in O	-5.04

CCSSCC
Conditions	solvation free energy, 298 K [kcal/mol]
in O	-1.54

C#CCC
Conditions	solvation free energy, 298 K [kcal/mol]
in C1COCCO1	-3
in CC(C)=O	-2.99
in CC(C)CC(C)(C)C	-2.36
in CN(C)C=O	-2.92
in COC(C)=O	-3.03
in O	-0.16

CCCCC(C)(C)C
Conditions	solvation free energy, 298 K [kcal/mol]
in O	3.02

ClC1CCCCC1
Conditions	solvation free energy, 298 K [kcal/mol]
in O	-0.93

CCCCCCCCCC(=O)c1c(C)[nH]n(-c2ccccc2)c1=O
Conditions	solvation free energy, 298 K [kcal/mol]
in O	-8.46

Clc1cc2c(cc1Cl)Oc1ccccc1O2
Conditions	solvation free energy, 298 K [kcal/mol]
in O	-3.56

CC(O)CC(C)(C)C (configuration not stated)
Conditions	solvation free energy, 298 K [kcal/mol]
in CCCCCCCC	-5.41
in CCCCCCCCCC	-5.33

CNC1CCCCC1
Conditions	solvation free energy, 298 K [kcal/mol]
in C1CCCCC1	-6.05

CS(=O)(=O)Cl
Conditions	solvation free energy, 298 K [kcal/mol]
in O	-4.87

C=C(C)C(CC=C(C)C)COC(C)=O (configuration not stated)
Conditions	solvation free energy, 298 K [kcal/mol]
in O	-3.36

Cc1cccnc1C
Conditions	solvation free energy, 298 K [kcal/mol]
in O	-4.82

O=C(O)CCCCc1ccccc1
Conditions	solvation free energy, 298 K [kcal/mol]
in O	-8.68
